Read-outs that look alike come from different tables or passages of the source.
Legend:
[1] = Zn^2+, cited from earlier work
[2] = Decorporation of Polonium-210: tissue distribution of IV administered Po-210 in rats; assay type: in vivo, Wistar-Han rats; settings: for % Reduction of Po-210 vs Po-210 Control / effect on polonium-210 level (in words): oral 15 mg/kg x 5, day 6; for Po-210 dpm/gm for animal group: single IV Po-210 approx. 90 kBq, oral 15 mg/kg every 24 h x 5, sacrifice day 6
Experimental: The digested sample was diluted with distilled water to reduce the nitric acid to approximately 1 M. An aliquot of the resulting solution was added to Ultima Gold XR liquid scintillation cocktail (Packard BioScience, Meriden, Conn.), counted and corrected for possible quenching.

[3] = Decorporation of Cobalt-60: tissue distribution and excretion of IV administered Co-60 in rats; assay type: in vivo, Male Wistar-Han rats; settings: for Co-60 Dose % for animal group: single IV Co-60 14 KBq, 48 hr post exposure; for effect on total Co-60 excretion (urine and feces): monitored 2 days, not statistically significant, 15 mg/kg
Experimental: Materials. Chloride stock solution of ^60Co as ^60CoCl2 was diluted with sterile saline solution to adjust to the desired activity and used for the IV dosing. Activity of the dosing solution was determined using automated Wallac 1480 (Perkin Elmer) gamma counter equipped with 3 inch NaI(TI) crystal shielded detector.
Animals. Male Wistar-Han rats were obtained from Charles River Breeding Laboratory (Raleigh, N.C.) with indwelling jugular vein cannula. Animals were provided food and water ad libitum during acclimatization. The light cycle was 12 hour light/12 hour dark and relative humidity and temperature maintained at 50±15% and 22±2° C. All animal use protocols were approved by the Institutional Animal Care and Use Committee at Battelle, Pacific Northwest Division and studies were performed according to the “Guide for the Care and Use of Laboratory Animals” (National Research Council, Washington D.C., 1996).
Dosing regimen. Animals were restricted from food overnight prior to exposure. At the time of exposure, groups of animals (N=6) received a single intravenous (IV) injection (0.2 mL) of ^60Co solution at 14.0±0.6 KBq dose in sterile saline via an indwelling jugular vein cannula. […] The actual doses delivered were calculated based on the individual animal weights (Table 3). One group of animals was dosed with the radionuclide without subsequent administration of the chelation material to serve as control group. Following dosing, animals were placed in Nalgene metabolism cages for separate collection of urine and feces. […] Animals were sacrificed 48 hr post radionuclide administration. At sacrifice, blood and tissues (liver, kidney, spleen, gastrointestinal tract, muscle, bone, bone marrow, and lung) were collected, weighed and counted for radioactivity using a Wallac 1480 gamma counter. Gamma count data were normalized to percent administered dose after adjusting the grams of tissue collected for total organ mass.
Data statistical evaluation. Each data group was subjected to Dixon's Q-test to evaluate for potential outliers. In this test Q parameter of 0.625 (N=6, 95% confidence level, a=0.05) was used (1). For each tissue, a preliminary F-test (95% confidence level, a=0.05) for the equality of variances of the control and each treatment group was performed using Excel software. If the calculated probability p value was less than 0.05, the variances were assumed to be not equal. Based on this information, “T-test: Two-Sample Assuming Unequal Variances” or “T-test: Two-Sample Assuming Equal Variances” (95% confidence level, a=0.05) was performed using Excel software. The calculated p-value less than 0.05 provides evidence to reject the null hypothesis of equal means. The obtained statistical parameters listed in Table 4 served as guidelines for data evaluation (Table 5; calculation assumes that total skeleton, blood, or muscle is approximately 7.3, 6, or 40% of the body weight of the animal, respectively; Co-60 in skeleton is calculated based on the femur data—R. P. Brown, M. D. Delp, S. L. Undstedt, L. R. Rhomberg, and R. P. Beliles, Physiological Parameter Values for Physiologically Based Pharmacokinetic Models. Toxicology and Industrial Health, 1997, 13(4): 407-484).

[4] = Ag^1+, cited from earlier work
[5] = Pb^2+, cited from earlier work
[6] = Cu^1+, cited from earlier work
[7] = Ni^2+, cited from earlier work
[8] = Tl^1+; cited from earlier work
[9] = Hg^2+, cited from earlier work
[10] = Co^2+; cited from earlier work
[11] = Cd^2+, cited from earlier work
[12] = single oral dose 15 mg/kg, day 1 post exposure

## CC(C)(S)[C@@H](N)C(=O)O [Penicillamine, 3-mercapto-D-valine]
[1]
  binding stability constant (log K): 9.71
[1]; listed as penicillamine
  binding stability constant (log K): fairly strong
[2]; Blood
  % Reduction of Po-210 vs Po-210 Control: 18%
  Po-210 dpm/gm for animal group: 28482 ± 6375 dpm/gm
[2]; Femur
  Po-210 dpm/gm for animal group: 22969 ± 4055 dpm/gm
[2]; Kidney
  % Reduction of Po-210 vs Po-210 Control: −15%
  Po-210 dpm/gm for animal group: 216172 ± 31993 dpm/gm
[2]; Liver
  % Reduction of Po-210 vs Po-210 Control: 12%
  Po-210 dpm/gm for animal group: 124648 ± 47423 dpm/gm
[2]; Lung
  % Reduction of Po-210 vs Po-210 Control: 20%
  effect on polonium-210 level (in words): reduced
  Po-210 dpm/gm for animal group: 67342 ± 7895 dpm/gm
[2]; Spleen
  Po-210 dpm/gm for animal group: 236736 ± 35488 dpm/gm
[2]; femur
  % Reduction of Po-210 vs Po-210 Control: 13%
  effect on polonium-210 level (in words): reduced
[2]; spleen
  % Reduction of Po-210 vs Po-210 Control: 44%
  effect on polonium-210 level (in words): reduced
[3]; Blood, single oral dose 15 mg/kg
  Co-60 Dose % for animal group: 0.089 ± 0.014%
[3]; Blood, single oral dose 15 mg/kg, 48 hr
  % Reduction of Co-60 vs Co-60 Control: 0%
[3]; Bone Marrow, single oral dose 15 mg/kg
  Co-60 Dose % for animal group: Below detection
[3]; Intestine, single oral dose 15 mg/kg
  Co-60 Dose % for animal group: 0.94 ± 0.25%
[3]; Intestine, single oral dose 15 mg/kg, 48 hr
  % Reduction of Co-60 vs Co-60 Control: 47%
[3]; Kidney, single oral dose 15 mg/kg
  Co-60 Dose % for animal group: 0.31 ± 0.07%
[3]; Kidney, single oral dose 15 mg/kg, 48 hr
  % Reduction of Co-60 vs Co-60 Control: 56%
[3]; Liver, single oral dose 15 mg/kg
  Co-60 Dose % for animal group: 0.99 ± 0.25%
[3]; Liver, single oral dose 15 mg/kg, 48 hr
  % Reduction of Co-60 vs Co-60 Control: 51%
[3]; Lung, single oral dose 15 mg/kg
  Co-60 Dose % for animal group: 0.16 ± 0.07%
[3]; Lung, single oral dose 15 mg/kg, 48 hr
  % Reduction of Co-60 vs Co-60 Control: 0%
[3]; Muscle, single oral dose 15 mg/kg
  Co-60 Dose % for animal group: 0.63 ± 0.18%
[3]; Muscle, single oral dose 15 mg/kg, 48 hr
  % Reduction of Co-60 vs Co-60 Control: 39%
[3]; Spleen, single oral dose 15 mg/kg
  Co-60 Dose % for animal group: 0.056 ± 0.007%
[3]; Spleen, single oral dose 15 mg/kg, 48 hr
  % Reduction of Co-60 vs Co-60 Control: 0%
[3]; Stomach, single oral dose 15 mg/kg
  Co-60 Dose % for animal group: 0.041 ± 0.014%
[3]; Stomach, single oral dose 15 mg/kg, 48 hr
  % Reduction of Co-60 vs Co-60 Control: 45%
[3]; Total Skeleton (from femur data), single oral dose 15 mg/kg
  Co-60 Dose % for animal group: 0.32 ± 0.17%
[3]; Total Skeleton, single oral dose 15 mg/kg, 48 hr
  % Reduction of Co-60 vs Co-60 Control: 49%
[3]; single oral dose 15 mg/kg, 48 hr
  effect on blood levels of Co-60: slightly decreased
[3]; [12]
  effect on urinary elimination of Co-60: did not change
  increase of fecal elimination of Co-60: about 3%
[3]; single oral dose 15 mg/kg
  effect on total Co-60 excretion (urine and feces): slightly increased
[3]; single oral dose 15 mg/kg, listed as penicillamine
  effect on total Co-60 excretion (urine and feces): appeared to accelerate
[3]; single oral dose, Co-60
  reduction in the fraction of administered dose in the skeleton (based on femur data), liver and kidney: 51-56%
[4]
  binding stability constant (log K): 12.4
[4]; listed as penicillamine
  binding stability constant (log K): fairly strong
[5]
  binding stability constant (log K): 12.3
[5]; listed as penicillamine
  binding stability constant (log K): fairly strong
[6]
  binding stability constant (log K): 18.18 (Cu^1+)
[6]; listed as penicillamine
  binding stability constant (log K): very strongly
[7]
  binding stability constant (log K): 10.70
[7]; listed as penicillamine
  binding stability constant (log K): fairly strong
[8]
  binding stability constant (log K): 3.58
[9]
  binding stability constant (log K): 16.3
[9]; listed as penicillamine
  binding stability constant (log K): very strongly
[10]
  binding stability constant (log K): 8.98
[11]
  binding stability constant (log K): 11.55
[11]; listed as penicillamine
  binding stability constant (log K): fairly strong

Reference: patent US20090030079A1 (priority 2007, published 2009)
